Literature values, collected in US11678659B2, “Use as rodenticides of compounds that inhibit blood coagulation” (priority 2014, dated 2023).

Experiments:
thrombin receptor PAR-1 = target: T1, thrombin receptor PAR-1 (Homo sapiens, UniProt P25116)
T1 construct: endogenous in cells; host or cells: study subjects (in vivo), platelets
T1 sequence (P25116 22-425): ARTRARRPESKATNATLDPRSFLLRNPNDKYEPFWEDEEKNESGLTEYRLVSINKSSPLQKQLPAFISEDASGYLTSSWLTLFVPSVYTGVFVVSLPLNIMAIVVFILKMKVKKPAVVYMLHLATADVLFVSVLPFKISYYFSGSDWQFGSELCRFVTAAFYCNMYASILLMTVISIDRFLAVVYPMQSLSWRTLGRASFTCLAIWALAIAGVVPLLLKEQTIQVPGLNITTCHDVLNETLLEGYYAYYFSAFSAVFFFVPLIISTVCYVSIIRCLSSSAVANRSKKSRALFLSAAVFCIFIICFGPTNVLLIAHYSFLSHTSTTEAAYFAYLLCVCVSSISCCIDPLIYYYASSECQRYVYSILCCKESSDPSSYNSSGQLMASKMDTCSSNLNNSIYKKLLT

thrombin = target: T2, thrombin (Homo sapiens, UniProt P00734); conditions: administration for more than 35 days
T2 construct: from tissue; host or cells: blood of human subjects (in vivo)

SMILES	bleedings observed (thrombin receptor PAR-1; one study)	liver enzymes (thrombin receptor PAR-1; two phase II studies)	liver toxicity (thrombin)
Br.CCOc1cc2c(c(F)c1OCC)C(=N)N(CC(=O)c1cc(N3CCOCC3)c(OC)c(C(C)(C)C)c1)C2 [Atopaxar, 1-(3-tert-butyl-4-methoxy-5-morpholin-4-yl-phenyl)-2-(5,6-diethoxy-4-fluoro-3-imino-1H-isoindol-2-yl)ethanone-hydrobromide]	not statistically significant	increase in liver enzymes	
CCOC(=O)CN[C@@H](C(=O)N1CC[C@H]1C(=O)NCc1ccc(/C(N)=N\O)cc1)C1CCCCC1 [ximelagatran]			risk of liver toxicity
